The source of these data is paper PMC7126831 (Bioorganic & Medicinal Chemistry, 2013).

Structures are written as SMILES.

Broadly, the IC50 is the concentration at which inhibition is half-maximal.

In this test the target is SARS-CoV PLpro (Severe acute respiratory syndrome coronavirus, UniProt P0C6U8). In words: biochemical. The class given is biochemical.
`CC(C)(O)CCCC1(C)CCc2c(cc3c(c2O)C(=O)C[C@@H](c2ccc(O)c(O)c2)O3)O1` (stereo partly drawn) [Compound 1, (2S)-2-(3,4-dihydroxyphenyl)-5-hydroxy-8-(4-hydroxy-4-methylpentyl)-8-methyl-2,3,7,8-tetrahydropyrano[3,2-g]chromen-4(6H)-one]: the Kinetic mode entry was “Mixed (4.8)”.
On the same count and under the same terms, with `COc1cc([C@@H]2CC(=O)c3c(cc4c(c3O)CCC(C)(CCCC(C)(C)O)O4)O2)cc(O)c1OC` (stereo partly drawn) [Compound 3, (2S)-5-hydroxy-2-(5-hydroxy-3,4-dimethoxyphenyl)-8-(4-hydroxy-4-methylpentyl)-8-methyl-2,3,7,8-tetrahydropyrano[3,2-g]chromen-4(6H)-one] the entry was “Mixed (5.0)”; with `COc1cc([C@@H]2CC(=O)c3c(cc4c(c3O)CCC(C)(CCCC(C)(C)O)O4)O2)cc(OC)c1O` (stereo partly drawn) [Compound 4, (2S)-5-hydroxy-2-(4-hydroxy-3,5-dimethoxyphenyl)-8-(4-hydroxy-4-methylpentyl)-8-methyl-2,3,7,8-tetrahydropyrano[3,2-g]chromen-4(6H)-one], “Mixed (13.0)”; with `COc1cc([C@H]2Oc3cc4c(c(O)c3C(=O)[C@@H]2O)CCC(C)(CCCC(C)(C)O)O4)ccc1O` (stereo partly drawn) [Compound 5, (2R,3R)-3,5-dihydroxy-2-(4-hydroxy-3-methoxyphenyl)-8-(4-hydroxy-4-methylpentyl)-8-methyl-2,3,7,8-tetrahydropyrano[3,2-g]chromen-4(6H)-one], “Mixed (3.7)”.
Still for that read-out and setting: with `COc1cc([C@H]2Oc3cc(O)c(C/C=C(\C)CCC=C(C)C)c(O)c3C(=O)[C@@H]2O)ccc1O` [Compound 6, 3′-O-methyldiplacol] the entry was “Mixed (6.6)”.
The same measure, in the same setting: with `COc1ccc([C@H]2Oc3cc(O)c(C/C=C(\C)CCC=C(C)C)c(O)c3C(=O)[C@@H]2O)cc1O` [Compound 7, 4′-O-methyldiplacol] the entry was “Mixed (6.3)”; with `COc1cc([C@@H]2CC(=O)c3c(cc(O)c(C/C=C(\C)CCC=C(C)C)c3O)O2)ccc1O` [Compound 8, 3′-O-methyldiplacone], “Mixed (7.1)”.
`COc1cc(C2CC(=O)c3c(cc(O)c(C/C=C(\C)CCC=C(C)C)c3O)O2)cc(OC)c1O` (centres unmarked) [Compound 12, 6-geranyl-4′,5,7-trihydroxy-3′,5′-dimethoxyflavanone] returned a concentration for half-maximal inhibition (IC50) of 13.9 ± 0.18 µM.
